Reference: patent US10035810B2, “5,6-dihydro-4H-benzo[b]thieno-[2,3-d]azepine derivative” (PULMOCIDE LIMITED, priority 2014, dated 2018)

What was measured:
RANTES gene transcript = experiment: RSV infection in cotton rats: RANTES gene transcript in lung (qRT-PCR); assay type: in vivo, cotton rats (Sigmodon hispidus); conditions: for RANTES gene transcript % inhibition / RANTES gene transcript (/β-actin), Median: cotton rats, lung, intranasal
Procedure: (§1) RSV Infection in Cotton Rats
(§2) Male Sigmodon hispidus cotton rats between 6 and 8 weeks of age were infected with hRSV/A/Long (ATCC, Manassas, Va.; 10^5 pfu) in a volume of 0.1 mL of sucrose stabilizing media. Compound (I) was dissolved in 100% DMSO (at 3.3, 10, 33 and 100 mg/mL), then diluted at 1:10 in isotonic saline to achieve 10% DMSO in all treatments. Formulations were then sonicated to produce suspensions. The resulting suspensions were administered intranasally (50 μL) by pipette 4 hr before infection (on day 0), and then on days 1, 2 and 3 post infection. Four days after RSV challenge, the animals were euthanised and the lungs were removed. The left lobe was used for viral titration via plaque assay and the lingular lobe for RSV/A/Long NS-1 qRT-PCR and cytokine qRT-PCR.
Total RNA was also extracted from homogenized lung tissue (RNeasy purification kit; Qiagen) and a sample (1 μg) was used to prepare cDNA using QuantiTect Reverse Transcription Kit (Qiagen). For real-time PCR reactions (RSV NS-1 and RANTES genes) the QuantiFast SYBR® Green PCR Kit (Qiagen) was used in a final volume of 25 μL, with final primer concentrations of 0.5 μM. Amplifications were performed on a Bio-Rad iCycler for 1 cycle of 95° C. for 3 min, followed by 40 cycles of 95° C. for 10 sec, 60° C. for 10 sec, and 72° C. for 15 sec. Baseline cycles and cycle threshold (Ct) were calculated by the iQ5 software in the PCR Base Line Subtracted Curve Fit mode. The standard curves were developed using serially diluted cDNA sample most enriched in the transcript of interest (e.g., lungs from day 4 post-primary RSV infection). The Ct values were plotted against login cDNA dilution factor. These curves were used to convert the Ct values obtained for different samples to relative expression units which were then normalized to the level of β-actin mRNA (“housekeeping gene”) expressed in the corresponding sample. The mRNA levels were expressed as the geometric mean±SEM for all animals in a group.

hRSV/A/Long = experiment: RSV infection in cotton rats: virus titre in lung homogenate (plaque assay); assay type: in vivo, cotton rats (Sigmodon hispidus)
[1] = test system: RSV NS-1 gene transcripts; experiment: RSV infection in cotton rats: RSV NS-1 gene transcript in lung (qRT-PCR); assay type: in vivo, cotton rats (Sigmodon hispidus); conditions: infected cotton rats
Procedure: as §1, §2
Total RNA was also extracted from homogenized lung tissue (RNeasy purification kit; Qiagen) and a sample (1 μg) was used to prepare cDNA using QuantiTect Reverse Transcription Kit (Qiagen). For real-time PCR reactions (RSV NS-1 and RANTES genes) the QuantiFast SYBR® Green PCR Kit (Qiagen) was used in a final volume of 25 μL, with final primer concentrations of 0.5 μM. […] Baseline cycles and cycle threshold (Ct) were calculated by the iQ5 software in the PCR Base Line Subtracted Curve Fit mode. […] The mRNA levels were expressed as the geometric mean±SEM for all animals in a group.

RSV A2 strain = experiment: RSV A2-induced CPE in HEp2 cells; assay type: cell-based; conditions: human respiratory syncytial virus
Procedure: Assessment of RSV Induced CPE in HEp2 Cells
HEp2 cells were seeded (10^3/well/50 μL) in 384-well plates (Catalogue number 353962, BD Falcon, Oxford, UK) in […] containing 2 mM L-glutamine and 1 mM sodium pyruvate one day before infection. RSV A2 strain (#0709161v, NCPV, Public Health England, Wiltshire) or RSV B Washington strain (VR-1580, ATCC, Manassas, Va. 20108) virus solutions were prepared in serum free-DMEM with 2 mM L-glutamine and 1 mM sodium pyruvate, and then added (50 μL/well) to achieve a final virus concentration of 1 MOI. Simultaneously Compound (I) (0.5 μL DMSO solution) was added to 100 μL of HEp2 cell culture with virus solution to provide a final DMSO solution of 0.5%. Plates were incubated (37° C./5% CO2) for 5 days for studies using RSV A2 strain or 6 days for those using RSV B strain, and then resazurin sodium salt (5 μL of 0.03% solution; Sigma-Aldrich, Dorset, UK) was added to each well and the plate incubated for a further 6 hr (37° C./5% CO2). The fluorescence of each well [545 nm (excitation)/590 nm (emission)] was determined using a multi-scanner (Clariostar: BMG, Buckinghamshire, UK). The percentage inhibition for each well was calculated and the IC50, IC75 and IC90 values were calculated from the concentration-response curve generated for Compound (I).

## Cc1cnc(N2CC3(CCOCC3)C2)c(C(=O)Nc2ccc(C(=O)N3CCc4cc(C(=O)Nc5c(C)cccc5F)sc4-c4ccccc43)cc2)c1 [Compound (I), N-(2-fluoro-6-methylphenyl)-6-(4-(5-methyl-2-(7-oxa-2-azaspiro[3.5]nonan-2-yl)nicotinamido)benzoyl)-5,6-dihydro-4H-benzo[b]thieno[2,3-d]azepine-2-carboxamide]
RANTES gene transcript; 0.33 mg/mL
  RANTES gene transcript % inhibition: 28%
  RANTES gene transcript (/β-actin), Median: 0.21 /β-actin
RANTES gene transcript; 1.0 mg/mL
  RANTES gene transcript % inhibition: 45%
  RANTES gene transcript (/β-actin), Median: 0.16 /β-actin
RANTES gene transcript; 3.3 mg/mL
  RANTES gene transcript % inhibition: 62%
  RANTES gene transcript (/β-actin), Median: 0.11 /β-actin
RANTES gene transcript; 10 mg/mL
  RANTES gene transcript % inhibition: 55%
  RANTES gene transcript (/β-actin), Median: 0.13 /β-actin
RANTES gene transcript; infected cotton rats
  RANTES transcripts in lung (in words): dose-dependent inhibition
hRSV/A/Long; RSV A2 infected cotton rats
  Virus titre in the lungs (in words): completely inhibited virus titre
hRSV/A/Long; infected cotton rats, day 4
  Virus titre in lung homogenates (in words): potent dose-dependent inhibition of virus titre
[1]
  RSV NS-1 gene transcripts in lung (in words): dose-dependent inhibition of RSV NS-1 gene transcripts
RSV A2 strain; HEp-2, 120 h, 1 MOI, 5 days
  IC50: 0.017 nM
RSV A2 strain; HEp-2, at 0.1 μg/mL
  inhibition at 0.1 µg/mL: 100%
